According to PubChem BioAssay AID1963832 (Molecular Pharmacology Branch, DTP, NCI, 2024):

System: 885724-159-R-J1-PDC complex spheroid viability
Experiment: Anticancer human tumor 885724-159-R-J1-PDC patient-derived pancreatic adenocarcinoma cell line growth inhibition [POLQ]
Conditions: for IC50: curve of first compound; for viability, T/C: stronger effect = lower value
Method in brief: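 PDC + HUVEC + MSC complex spheroids; POLQ inhibitors ± partner drugs; top conc. at/near clinical Cmax, else 10 microM (SN-38 1 microM), half-log dilutions; 37 degrees C, 5% CO2.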

[1] = second compound 0.0316 µM, first compound 0.0316 µM
[2] = second compound 0.0316 µM, first compound 0.1 µM
[3] = second compound 0.0316 µM, first compound 0.316 µM
[4] = second compound 0.0316 µM, first compound 1 µM
[5] = second compound 0.0316 µM, first compound 3.16 µM
[6] = second compound 0.0316 µM, first compound 10 µM
[7] = second compound 0.1 µM, first compound 0.0316 µM
[8] = second compound 0.1 µM, first compound 0.1 µM
[9] = second compound 0.1 µM, first compound 0.316 µM
[10] = second compound 0.1 µM, first compound 1 µM
[11] = second compound 0.1 µM, first compound 3.16 µM
[12] = second compound 0.1 µM, first compound 10 µM
[13] = second compound 0.316 µM, first compound 0.0316 µM
[14] = second compound 0.316 µM, first compound 0.1 µM
[15] = second compound 0.316 µM, first compound 0.316 µM
[16] = second compound 0.316 µM, first compound 1 µM
[17] = second compound 0.316 µM, first compound 3.16 µM
[18] = second compound 0.316 µM, first compound 10 µM
[19] = second compound 1 µM, first compound 0.0316 µM
[20] = second compound 1 µM, first compound 0.1 µM
[21] = second compound 1 µM, first compound 0.316 µM
[22] = second compound 1 µM, first compound 1 µM
[23] = second compound 1 µM, first compound 3.16 µM
[24] = second compound 1 µM, first compound 10 µM
[25] = second compound 3.16 µM, first compound 0.0316 µM
[26] = second compound 3.16 µM, first compound 0.1 µM
[27] = second compound 3.16 µM, first compound 0.316 µM
[28] = second compound 3.16 µM, first compound 1 µM
[29] = second compound 3.16 µM, first compound 3.16 µM
[30] = second compound 3.16 µM, first compound 10 µM
[31] = second compound 10 µM, first compound 0.0316 µM
[32] = second compound 10 µM, first compound 0.1 µM
[33] = second compound 10 µM, first compound 0.316 µM
[34] = second compound 10 µM, first compound 1 µM
[35] = second compound 10 µM, first compound 3.16 µM
[36] = second compound 10 µM, first compound 10 µM
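Further: spheroids exposed to compounds for 7 days.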

## COc1cc(C2c3cc4c(cc3C(OC3OC5COC(C)OC5C(O)C3O)C3COC(=O)C23)OCO4)cc(OC)c1O (stereo unspecified) + Cc1cccc(N(C)C(=O)C2C(O)CCN2c2nc(C)cc(C(F)(F)F)c2C#N)c1
Second compound 0.0316 µM
  IC50: 8.12 µM
Second compound 0.1 µM
  IC50: 9.11 µM
Second compound 0.316 µM
  IC50: 9.09 µM
Second compound 1 µM
  IC50: 6.86 µM
Second compound 3.16 µM
  IC50: 6.86 µM
Second compound 10 µM
  IC50: 6.05 µM
[1]
  viability, T/C: 101%
[2]
  viability, T/C: 90.2%
[3]
  viability, T/C: 80.7%
[4]
  viability, T/C: 75%
[5]
  viability, T/C: 57.7%
[6]
  viability, T/C: 48.1%
[7]
  viability, T/C: 94.7%
[8]
  viability, T/C: 86.1%
[9]
  viability, T/C: 79.5%
[10]
  viability, T/C: 73.4%
[11]
  viability, T/C: 63.2%
[12]
  viability, T/C: 47.5%
[13]
  viability, T/C: 95.4%
[14]
  viability, T/C: 99.8%
[15]
  viability, T/C: 74.6%
[16]
  viability, T/C: 71%
[17]
  viability, T/C: 58.2%
[18]
  viability, T/C: 48.4%
[19]
  viability, T/C: 100%
[20]
  viability, T/C: 79.3%
[21]
  viability, T/C: 74%
[22]
  viability, T/C: 71%
[23]
  viability, T/C: 55.7%
[24]
  viability, T/C: 45.4%
[25]
  viability, T/C: 98.1%
[26]
  viability, T/C: 96.9%
[27]
  viability, T/C: 76.2%
[28]
  viability, T/C: 67.3%
[29]
  viability, T/C: 58.6%
[30]
  viability, T/C: 45.9%
[31]
  viability, T/C: 95.9%
[32]
  viability, T/C: 80%
[33]
  viability, T/C: 74.9%
[34]
  viability, T/C: 62.6%
[35]
  viability, T/C: 58.2%
[36]
  viability, T/C: 44.2%

## Nc1ccn(C2OC(CO)C(O)C2(F)F)c(=O)n1 (stereo unspecified) + Cc1cccc(N(C)C(=O)C2C(O)CCN2c2nc(C)cc(C(F)(F)F)c2C#N)c1
Second compound 0.0316 µM
  IC50: 5.14 µM
Second compound 0.1 µM
  IC50: > 10 µM
Second compound 0.316 µM
  IC50: 4.24 µM
Second compound 1 µM
  IC50: 4.15 µM
Second compound 3.16 µM
  IC50: 3.06 µM
Second compound 10 µM
  IC50: 7.26 µM
[1]
  viability, T/C: 59.3%
[2]
  viability, T/C: 55.2%
[3]
  viability, T/C: 55.2%
[4]
  viability, T/C: 52.1%
[5]
  viability, T/C: 56.2%
[6]
  viability, T/C: 42.8%
[7]
  viability, T/C: 70.7%
[8]
  viability, T/C: 56%
[9]
  viability, T/C: 57.5%
[10]
  viability, T/C: 58.2%
[11]
  viability, T/C: 55.3%
[12]
  viability, T/C: 45.9%
[13]
  viability, T/C: 67.2%
[14]
  viability, T/C: 58.5%
[15]
  viability, T/C: 55%
[16]
  viability, T/C: 57.6%
[17]
  viability, T/C: 53.1%
[18]
  viability, T/C: 45.4%
[19]
  viability, T/C: 65.1%
[20]
  viability, T/C: 55.4%
[21]
  viability, T/C: 58.2%
[22]
  viability, T/C: 57.4%
[23]
  viability, T/C: 53.1%
[24]
  viability, T/C: 42.8%
[25]
  viability, T/C: 66%
[26]
  viability, T/C: 56.7%
[27]
  viability, T/C: 52%
[28]
  viability, T/C: 56.8%
[29]
  viability, T/C: 54.5%
[30]
  viability, T/C: 42.8%
[31]
  viability, T/C: 68.9%
[32]
  viability, T/C: 55.5%
[33]
  viability, T/C: 59.3%
[34]
  viability, T/C: 56%
[35]
  viability, T/C: 58%
[36]
  viability, T/C: 45.1%

## O=C(c1cc(Cc2n[nH]c(=O)c3ccccc23)ccc1F)N1CCN(C(=O)C2CC2)CC1 + Cc1cccc(N(C)C(=O)C2C(O)CCN2c2nc(C)cc(C(F)(F)F)c2C#N)c1
Second compound 0.0316 µM
  IC50: > 10 µM
Second compound 0.1 µM
  IC50: > 10 µM
Second compound 0.316 µM
  IC50: > 10 µM
Second compound 1 µM
  IC50: > 10 µM
Second compound 3.16 µM
  IC50: > 10 µM
Second compound 10 µM
  IC50: > 10 µM
[1]
  viability, T/C: 85.9%
[2]
  viability, T/C: 99.1%
[3]
  viability, T/C: 97.2%
[4]
  viability, T/C: 94.2%
[5]
  viability, T/C: 94.6%
[6]
  viability, T/C: 76.3%
[7]
  viability, T/C: 97.3%
[8]
  viability, T/C: 104%
[9]
  viability, T/C: 100%
[10]
  viability, T/C: 102%
[11]
  viability, T/C: 94.7%
[12]
  viability, T/C: 83.1%
[13]
  viability, T/C: 104%
[14]
  viability, T/C: 91.7%
[15]
  viability, T/C: 91.9%
[16]
  viability, T/C: 99.6%
[17]
  viability, T/C: 98%
[18]
  viability, T/C: 75.9%
[19]
  viability, T/C: 109%
[20]
  viability, T/C: 84.3%
[21]
  viability, T/C: 89.1%
[22]
  viability, T/C: 94.1%
[23]
  viability, T/C: 94.6%
[24]
  viability, T/C: 86.1%
[25]
  viability, T/C: 92%
[26]
  viability, T/C: 89.7%
[27]
  viability, T/C: 99.1%
[28]
  viability, T/C: 89.2%
[29]
  viability, T/C: 103%
[30]
  viability, T/C: 82.9%
[31]
  viability, T/C: 98%
[32]
  viability, T/C: 109%
[33]
  viability, T/C: 109%
[34]
  viability, T/C: 86.1%
[35]
  viability, T/C: 104%
[36]
  viability, T/C: 79.9%
